Measured values published in paper PMC9563435, “Comparison of Different Clinical Chemotherapeutical Agents’ Toxicity and Cell Response on Mesenchymal Stem Cells and Cancer Cells” (Cells, 2022).

Assays:
Assay type in all cases: cell-based, human
Ad-MSC-GFP 3 cells [1] = assay: Cytotoxicity / cell viability assay (PrestoBlue) on Ad-MSC-GFP 3; settings: Ad-MSC-GFP 3 / Ad-MSC 3, 5 days
Description: (§1) Cells were seeded in a 96-well tissue culture plate in 100 µL of medium. Ad-MSC-GFP 1, iAd-MSC-GFP 1, Ad-MSC-GFP 2, Ad-MSC-GFP 3, BM-MSC, and HFF were seeded at 5 × 10^3/100 µL/well density and A431-mCh, MES-SA-mCh, and MCF-7-GFP at 4 × 10^3 cells/100 µL/well concentration in DMEM-F12 media. Different initial cell numbers were used due to different proliferation rates of different cell types. Cells were allowed to attach overnight at 37 °C and the day after were treated with the drugs using the indicated concentrations in 100 µL. Cell viability was measured by using PrestoBlue™ Cell Viability Reagent (A13232, Invitrogen, Waltham, MA, USA). To address metabolic differences between cancer cells and MSCs, the assay was optimized for each cell line, cells were incubated with 5 or 12.5% PrestoBlue™ Cell Viability Reagent diluted in PBS at 37 °C/5% CO2 for 1–1.5 h 5 days after the treatment. The fluorescence signal was measured by an EnSpire (Perkin Elmer, Waltham, MA, USA) fluorometer at 555 nm (excitation)/585 nm (emission) wavelength.
(§2) After the incubation period, the relative fluorescence data was measured. The data was normalized with the fluorescence of blank samples (cell culture media). […] In these cases, IC50 was calculated from the line connecting the measurement points. For repeated measurements, average and standard deviation was calculated based on the logarithm of the IC50 values.

A431 cells = assay: ROS induction (DCFH-DA), A431; settings: 1 h, different concentrations incl. higher
Description: (§3) Ad-MSC 3 and A431 cells were seeded in a 96-well tissue culture plate and incubated for 24 h as described above. Cells were washed twice with HBSS and incubated in 100 µL of DCFH-DA dye (R252-10, Dojindo) according to the manufacturer’s instructions. Cells were incubated for 30 min at 37 °C and washed twice with HBSS. […] Supernatant was removed, and the cells were washed with HBSS before imaging with the JuLI^TM Stage Cell History Recorder (NanoEnTek).

Ad-MSC-GFP 3 cells [2] = assay: γ-H2AX staining of DNA double-stranded breaks, Ad-MSC-GFP 3
Description: (§4) Ad-MSC-GFP 3 cells were seeded into glass-bottomed chamber slides (ibidi, Germany, Grafelfing, Germany) at 1 × 10^4/well and A431-mCh at 1.6 × 10^4/well density. […] Cells in all chambers were fixed with 4% PFA for 15 min and washed twice with PBS. Blocking solution (0.5% BSA-PBS, 0.1% TritonX-100, 5% goat serum, and 1% fish gelatin) was used for 1 h. γ-H2A.X primary antibody (MA1-2022, Invitrogen, United States) was diluted in blocking solution at 1:500 concentration and incubated overnight at 4 °C. Afterwards, the cells were washed with PBS twice and goat anti-mouse A633 secondary antibody (A21052, abcam, Cambridge, UK) was diluted at 1:250 concentration in blocking solution. Nuclei was stained with a Hoechst-33342 (23491-52-3, Dojindo, Kumamoto, Japan) at 1:1000 concentration.
(§5) To quantify DNA damage based on immunofluorescence against γ-H2AX, a semi-automated image analysis pipeline was set up using CellProfiler v4.1.3 [10]. First, images showing DAPI-stained nuclei were pre-processed by intensity normalization and Gaussian filtering (ϭ = 20 px) to suppress noise and remove artifacts caused by debris. Nuclei candidates were identified by threshold-based segmentation; false candidates were removed from the analysis manually. Using the remaining nuclei regions as masks, pixel intensities were measured on the γ-H2AX channel, thus, excluding non-nuclei signals.

Ad-MSC 3 cells [3] = assay: ROS induction (DCFH-DA), Ad-MSC 3; settings: 1 h, different concentrations incl. higher
Description: as §3

Ad-MSC 3 cells [4] = assay: Apoptosis assay (Annexin V / TO-PRO-3 flow cytometry), Ad-MSC 3
Description: Apoptosis detection was based on the Annexin-V molecule binding to phosphatidylserine membrane molecules. Two cell lines were used to study apoptosis: Ad-MSC 3 cells were plated in a 5 × 10^4 cells/well concentration, while 4 × 10^4/well A431-mCh were seeded into each well in a 12-well tissue culture plate. […] At day 5, cells were trypsinized and centrifuged, while the supernatant was also collected and combined with the detached cells to include all already dead cells. Cells were washed twice with 500 µL of 1% BSA-PBS (bovine serum albumin dissolved in PBS, A8022, Sigma-Aldrich, St. Louis, MO, USA) solution and centrifuged at 400× G for 4 min. Cells were resuspended in 100 µL of 1× Annexin Binding Buffer (422201, Biolegend, San Diego, CA, USA), and 3 µL of Annexin V-Pacific Blue (A35122, Biolegend, San Diego, CA, USA) and 1 µL of TO-PRO-3 (R37170, Invitrogen, Waltham, MA, USA) were added to each sample. After 15 min of incubation, labeled and non-labeled samples were diluted 5-fold with 1× Annexin Binding Buffer and analyzed by Attune™ NxT flow cytometer.

Ad-MSC-GFP 3 cells [5] = assay: Live cell imaging, confluency, Ad-MSC-GFP 3; settings: 120 h live cell imaging
Description: (§6) JuLI™ Stage Cell History Recorder was used to monitor a five-day cytotoxicity assay on Ad-MSC-GFP 3 and A431-mCh cell lines. […] Images were taken every 105 min for 120 h at 10× objective magnification. Live cell microscopy studies were evaluated using the “Growth curve” function of the JuLI STAT image analysis software (v2.0.1.0).

A431-mCh cells [6] = assay: Live cell imaging, confluency, A431-mCh; settings: 120 h
Description: as §6

A431-mCh cells [7] = assay: γ-H2AX staining of DNA double-stranded breaks, A431-mCh
Description: as §4, §5

Ad-MSC 3 cells [8] = assay: Senescence β-galactosidase staining, Ad-MSC 3; settings: 4 µM; 5 days treatment then 7 days drug-free
Description: At day 5, media was removed and replaced with 200 µL of completed DMEM-F12 for 7 days. The Senescence β-Galactosidase Staining Kit (9860S, Cell Signaling Technology, Danvers, MA, USA) was used to detect senescent cells. Cells were fixed with fixing solution, washed with PBS, stained with X-gal solution overnight at 37 °C without CO2, and coated with 70% glycerol.

[9] = test system: 6 MSCs and 3 cancer cell lines; assay: Cytotoxicity / cell viability assay (PrestoBlue), panel of MSCs and cancer cell lines; settings: 5 days treatment, IC50 comparison
Description: as §1
as §2, with “media). A sigmoidal dose–response curve was fitted to the normalized measurement data and the logarithm of the concentration using the least square method. An inhibitory concentration of 50% (IC50 and log10) was interpolated from the fitted graph.” for “media).”
To compare the mean IC50 values of six mesenchymal stem cell lines (Group-1) and three cancer cell lines (Group-2), first an F-test was performed to check equal variances between the groups, then two-sample unpaired t-tests were performed to calculate significance using Microsoft® Excel® 2016 (16.0.4266.1001).

[10] = 120 h, IC50 concentrations of A431 (2 µM cisplatin, 0.1 µM doxorubicin, 30 µM nutlin-3)

## N.N.[Cl][Pt][Cl] [cisplatin]
Ad-MSC-GFP 3 cells [1]
  IC50: 10 µM
A431 cells
  ROS induction: did not induce ROS
Ad-MSC-GFP 3 cells [2]; 10 µM, 5 days
  number of double-stranded breaks (γ-H2AX): significantly increased the number of double-stranded breaks
Ad-MSC-GFP 3 cells [2]; [10]
  DNA double-stranded breaks (γ-H2AX): no DNA break was detected
Ad-MSC 3 cells [3]
  ROS induction: did not induce ROS
Ad-MSC 3 cells [4]; 10 µM (IC50 level of Ad-MSC-GFP 3)
  apoptosis (in words): notable amounts of late apoptosic cells
Ad-MSC 3 cells [4]; 120 h
  apoptosis compared to untreated controls (in words): virtually no apoptosis
Ad-MSC-GFP 3 cells [5]
  concentration at which significant drops in confluency were seen, as multiple of Ad-MSC-GFP 3 IC50: 2 fold
A431-mCh cells [6]; IC50 of A431-mCh and 10-fold higher concentration
  number of viable colonies in live cell imaging: significantly reduced the number of viable colonies
A431-mCh cells [6]; concentration 10-fold lower than A431-mCh IC50
  growth kinetics in live cell imaging: did not alter growth kinetics
A431-mCh cells [7]; 10 µM, 5 days
  effect on A431 cells in γ-H2AX experiment: almost completely eradicating A431 cells
A431-mCh cells [7]; [10]
  DNA damage (γ-H2AX): massive DNA damage
Ad-MSC 3 cells [8]
  SA-β-Gal staining (senescence): slightly increased SA-ß-Gal staining
[9]
  drug sensitivity of MSCs compared with cancer cells (in words): required significantly higher concentrations to kill MSCs than cancer cells
